# Experimental data as given in PubChem BioAssay (NCI).
#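 Here, GI50 denotes the concentration required for 50% inhibition of growth. TGI is the concentration that stops growth completely.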
# Assays:
# Assay in all cases: NCI anticancer screen, dose series, 384-well format
# [1] = test system: 786-0 renal
# [2] = test system: A498 renal
# [3] = test system: A549 NSCLC
# [4] = test system: ACHN renal
# [5] = test system: BT-549 breast
# [6] = test system: CAKI-1 renal
# [7] = test system: CCRF-CEM leukemia
# [8] = test system: COLO 205 colon
# [9] = test system: DU-145 prostate
# [10] = test system: EKVX NSCLC
# [11] = test system: HCC-2998 colon
# [12] = test system: HCT-116 colon
# [13] = test system: HCT-15 colon
# [14] = test system: HL-60(TB) leukemia
# [15] = test system: HOP-62 NSCLC
# [16] = test system: HOP-92 NSCLC
# [17] = test system: HS 578T breast
# [18] = test system: HT29 colon
# [19] = test system: IGROV1 ovarian
# [20] = test system: K-562 leukemia
# [21] = test system: KM12 colon
# [22] = test system: LOX IMVI melanoma
# [23] = test system: M14 melanoma
# [24] = test system: MALME-3M melanoma
# [25] = test system: MCF7 breast
# [26] = test system: MDA-MB-231 breast
# [27] = test system: MDA-MB-435 melanoma
# [28] = test system: MDA-MB-468 breast
# [29] = test system: MOLT-4 leukemia
# [30] = test system: NCI-H226 lung
# [31] = test system: NCI-H23 lung
# [32] = test system: NCI-H322M lung
# [33] = test system: NCI-H460 NSCLC
# [34] = test system: NCI-H522 lung
# [35] = test system: NCI/ADR-RES ovarian
# [36] = test system: OVCAR-3 ovarian
# [37] = test system: OVCAR-4 ovarian
# [38] = test system: OVCAR-5 ovarian
# [39] = test system: PC-3 prostate
# [40] = test system: RPMI-8226 leukemia
# [41] = test system: RXF 393 renal
# [42] = test system: SF-268 CNS
# [43] = test system: SF-295 CNS
# [44] = test system: SF-539 CNS
# [45] = test system: SK-MEL-2 melanoma
# [46] = test system: SK-MEL-28 melanoma
# [47] = test system: SK-MEL-5 melanoma
# [48] = test system: SK-OV-3 ovarian
# [49] = test system: SN12C renal
# [50] = test system: SNB-19 CNS
# [51] = test system: SNB-75 CNS
# [52] = test system: SR leukemia
# [53] = test system: SW-620 colon
# [54] = test system: T-47D breast
# [55] = test system: TK-10 renal
# [56] = test system: U251 glioblastoma
# [57] = test system: UACC-257 melanoma
# [58] = test system: UACC-62 melanoma
# [59] = test system: UO-31 renal
smiles,measurement,setting,value
O=[N+]([O-])c1ccc(Nc2ccccc2-c2ccccc2)c2nonc12,GI50,[1],12.6 µM
same,TGI,[1],25.6 µM
same,GI50,[2],14.9 µM
same,TGI,[2],32.3 µM
same,GI50,[3],14.1 µM
same,TGI,[3],30.9 µM
same,GI50,[4],15.6 µM
same,TGI,[4],34.2 µM
same,GI50,[5],17.1 µM
same,TGI,[5],32.2 µM
same,GI50,[6],14.5 µM
same,TGI,[6],33.3 µM
same,GI50,[7],11.3 µM
same,TGI,[7],23.6 µM
same,GI50,[8],17.5 µM
same,TGI,[8],42.3 µM
same,GI50,[9],16.3 µM
same,TGI,[9],51.2 µM
same,GI50,[10],13.2 µM
same,TGI,[10],30 µM
same,GI50,[11],22.3 µM
same,TGI,[11],40.8 µM
same,GI50,[12],13.9 µM
same,TGI,[12],28.2 µM
same,GI50,[13],14.3 µM
same,TGI,[13],29.2 µM
same,GI50,[14],13.3 µM
same,TGI,[14],26.5 µM
same,GI50,[15],13.7 µM
same,TGI,[15],28.4 µM
same,GI50,[16],10.5 µM
same,TGI,[16],24.8 µM
same,GI50,[17],10.4 µM
same,TGI,[17],23.8 µM
same,GI50,[18],15.9 µM
same,TGI,[18],33.8 µM
same,GI50,[19],16.1 µM
same,TGI,[19],36.2 µM
same,GI50,[20],11.5 µM
same,TGI,[20],28.6 µM
same,GI50,[21],16.4 µM
same,TGI,[21],33 µM
same,GI50,[22],15.9 µM
same,TGI,[22],29.7 µM
same,GI50,[23],13.9 µM
same,TGI,[23],30.9 µM
same,GI50,[24],16.8 µM
same,TGI,[24],36.3 µM
same,GI50,[25],13.8 µM
same,TGI,[25],31.3 µM
same,GI50,[26],16.2 µM
same,TGI,[26],35.1 µM
same,GI50,[27],10.7 µM
same,TGI,[27],30.1 µM
same,GI50,[28],3.96 µM
same,TGI,[28],15.4 µM
same,GI50,[29],12.8 µM
same,TGI,[29],25.6 µM
same,GI50,[30],11.2 µM
same,TGI,[30],23.6 µM
same,GI50,[31],5.93 µM
same,TGI,[31],20.5 µM
same,GI50,[32],17.5 µM
same,TGI,[32],37.3 µM
same,GI50,[33],11 µM
same,TGI,[33],24.1 µM
same,GI50,[34],9.27 µM
same,TGI,[34],22.9 µM
same,GI50,[35],12.7 µM
same,TGI,[35],27.9 µM
same,GI50,[36],11.9 µM
same,TGI,[36],25.1 µM
same,GI50,[37],7.68 µM
same,TGI,[37],28.4 µM
same,GI50,[38],15.8 µM
same,TGI,[38],36.9 µM
same,GI50,[39],12.8 µM
same,TGI,[39],27 µM
same,GI50,[40],7.48 µM
same,TGI,[40],20 µM
same,GI50,[41],17.4 µM
same,TGI,[41],32.2 µM
same,GI50,[42],15.6 µM
same,TGI,[42],34.1 µM
same,GI50,[43],10.1 µM
same,TGI,[43],22.9 µM
same,GI50,[44],17.4 µM
same,TGI,[44],33.2 µM
same,GI50,[45],23 µM
same,TGI,[45],37.9 µM
same,GI50,[46],13.2 µM
same,TGI,[46],29.7 µM
same,GI50,[47],12.9 µM
same,TGI,[47],25.7 µM
same,GI50,[48],19.9 µM
same,TGI,[48],40.4 µM
same,GI50,[49],11.9 µM
same,TGI,[49],28.6 µM
same,GI50,[50],12.9 µM
same,TGI,[50],35.1 µM
same,GI50,[51],14.1 µM
same,TGI,[51],34 µM
same,GI50,[52],19 µM
same,TGI,[52],33.3 µM
same,GI50,[53],16.4 µM
same,TGI,[53],35.7 µM
same,GI50,[54],7.99 µM
same,TGI,[54],30.9 µM
same,GI50,[55],14 µM
same,TGI,[55],34.8 µM
same,GI50,[56],11.2 µM
same,TGI,[56],25.7 µM
same,GI50,[57],16.5 µM
same,TGI,[57],36.1 µM
same,GI50,[58],13.6 µM
same,TGI,[58],28.3 µM
same,GI50,[59],13 µM
same,TGI,[59],27.5 µM
